As a reminder, the Kd is the constant that tells how readily two partners part at equilibrium.

The source made the active and inactive calls. How the calls were made is not given here.

Our source for the Kd values is PubChem BioAssay AID1033 (Sanford-Burnham Center for Chemical Genomics, 2008).

Chaperone protein DnaK (Escherichia coli (strain K12)), sequence (P0A6Y8 whole entry, looked up): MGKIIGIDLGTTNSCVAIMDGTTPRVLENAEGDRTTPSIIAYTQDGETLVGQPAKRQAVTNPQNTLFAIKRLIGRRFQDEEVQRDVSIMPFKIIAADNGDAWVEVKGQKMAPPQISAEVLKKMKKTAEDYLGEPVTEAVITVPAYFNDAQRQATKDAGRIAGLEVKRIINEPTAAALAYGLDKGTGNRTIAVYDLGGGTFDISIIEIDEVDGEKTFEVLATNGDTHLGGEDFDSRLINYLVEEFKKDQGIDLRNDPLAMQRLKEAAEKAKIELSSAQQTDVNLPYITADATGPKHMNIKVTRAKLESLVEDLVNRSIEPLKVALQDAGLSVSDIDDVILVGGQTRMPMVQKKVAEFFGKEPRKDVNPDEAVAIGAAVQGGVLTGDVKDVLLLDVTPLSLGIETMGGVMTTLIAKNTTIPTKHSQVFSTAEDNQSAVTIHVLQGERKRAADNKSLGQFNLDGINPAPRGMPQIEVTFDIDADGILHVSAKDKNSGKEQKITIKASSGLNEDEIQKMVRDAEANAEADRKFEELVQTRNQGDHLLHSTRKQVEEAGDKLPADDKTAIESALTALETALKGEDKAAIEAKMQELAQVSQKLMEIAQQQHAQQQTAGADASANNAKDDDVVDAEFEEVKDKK

This test concerns the target Chaperone protein DnaK (Escherichia coli (strain K12)) (UniProt P0A6Y8). Description: E. coli DnaK SBD ligand binding – biophysical, NMR, chaperone (AID 1033). To be noted: Purified DnaK SBD.
Turning to `Nc1ccc(S(=O)(=O)N2CCCCC2)cc1`, the Kd is > 4 mM (inactive).

For the molecule `Cc1nnsc1C(=O)Nc1ccccc1[N+](=O)[O-]`, the Kd was > 4 mM (inactive).

Regarding `COc1ccc2c(c1)OC1(O)COc3cc(OC)c(OC)cc3C1=C2` (stereo unspecified), the Kd was > 4 mM (inactive).

As to `Cc1cc2ncc(C(=O)O)c(C)n2n1`, the Kd was > 4 mM (inactive).

For the molecule `COc1ccc(-c2cc(=O)c3ccccc3o2)cc1OC`, the Kd is > 4 mM (inactive).

Regarding `C(=N\n1cnnc1)/c1cccs1`, the Kd was > 4 mM (inactive).

In the case of `Nc1ccn(C2O[C@H](CO)[C@@H](O)[C@H]2O)c(=O)n1` (stereo partly specified), the Kd is > 4 mM (inactive).

As to `NC(=O)c1cc(N)cc(C(N)=O)c1`, the Kd is > 4 mM (inactive).

Consider `c1cncc(C2CCCCN2)c1` (stereo unspecified), for which the Kd is > 4 mM (inactive).

Regarding `NC(Cn1ccc(=O)c(O)c1)C(=O)O` (stereo unspecified), the Kd is > 4 mM (inactive).

On to `NC1=NC(=O)/C(=C/c2cccc([N+](=O)[O-])c2)S1`, for which the Kd was > 4 mM (inactive).

As to `O=c1c(O)c(-c2ccccc2)oc2cc(O)ccc12`, the Kd was > 4 mM (inactive).

Turning to `O=C1NC(=S)N/C1=C\c1cccc([N+](=O)[O-])c1`, the Kd was > 4 mM (inactive).

`CN1C(=O)CC[C@H]1c1cccnc1`: the Kd was > 4 mM (inactive).

As to `OCCNc1nc2ccc(Cl)cc2[nH]1`, the Kd was > 4 mM (inactive).

Turning to `CCOc1ccc(N2C(=O)CCC2=O)cc1`, the Kd was > 4 mM (inactive).

For the molecule `S=C(c1cccnc1)N1CCOCC1`, the Kd is > 4 mM (inactive).

Turning to `O=c1n(-c2cccc(Cl)c2)c(=O)n2n1CCC2`, the Kd is > 4 mM (inactive).

As for `Cc1cn(C(=O)CN2C(=O)c3ccccc3C2=O)c(C)n1`, the Kd was > 4 mM (inactive).

Take `COCc1cc(Cl)nc(-c2csc(C)n2)n1`: the Kd was > 4 mM (inactive).

As to `O=C(O)C1CC(=O)N(C2Cc3ccccc3C2)C1` (stereo unspecified), the Kd was > 4 mM (inactive).

`Cc1ccccc1C(=O)Nc1cccc(N)c1`: the Kd is > 4 mM (inactive).

On to `CC(=O)OC1CCC23CC1(C)CCC2C(C)(C)CC3OC(C)=O` (stereo unspecified), for which the Kd is > 4 mM (inactive).

As to `CCOC(=O)c1cc(C)n(C)n1`, the Kd was > 4 mM (inactive).

`COc1cc(-c2coc3cc(OC)c(OC)c(OC)c3c2=O)cc(OC)c1OC`: the Kd was > 4 mM (inactive).

In the case of `COc1ccc([C@H]2Oc3c(I)c(OC)cc(OC)c3C[C@@H]2O)cc1OC`, the Kd was > 4 mM (inactive).

Consider `CN(C)S(=O)(=O)c1ccc(NC=O)cc1`, for which the Kd was > 4 mM (inactive).

On to `c1ccc2[nH]c(NCCN3CCOCC3)nc2c1`, for which the Kd is > 4 mM (inactive).

Turning to `Fc1ccc(-c2n[nH]c(=S)n2CC2CCCO2)cc1` (stereo unspecified), the Kd is > 4 mM (inactive).

Take `CC(=O)Nc1cccc(N(C)S(C)(=O)=O)c1`: the Kd is > 4 mM (inactive).

For the molecule `Cc1ccc(S(=O)(=O)CC(=O)N(C)C)cc1`, the Kd was > 4 mM (inactive).

As for `NC(=O)C1CCN(C(=O)CN2CCc3ccccc32)CC1`, the Kd was > 4 mM (inactive).

For the molecule `C/C(O)=c1/sc2cc(C)nc(=N)n2c1=O`, the Kd is > 4 mM (inactive).

With `COc1c(-c2ccccc2)oc2c(OC)cccc2c1=O`, the Kd was > 4 mM (inactive).

In the case of `Cc1cc2c(N)cccc2nn1`, the Kd is > 4 mM (inactive).

For `O=C(Nc1cccc(Cl)c1)c1ccncc1`, the Kd is > 4 mM (inactive).

Regarding `NC(=O)C12CC3CC(C1)C(=O)C(C3)C2`, the Kd is > 4 mM (inactive).

Turning to `O=C(CSc1ccccc1)N1CCC2(CC1)OCCO2`, the Kd was > 4 mM (inactive).

Regarding `NCc1ccc2c(c1)OCCCO2`, the Kd is > 4 mM (inactive).

`O=C(NC(=S)NCc1cccnc1)c1ccco1`: the Kd is > 4 mM (inactive).

With `CC1(C)C(=O)C=C[C@@]2(C)C1C=C[C@]1(C)C2CC[C@@]2(C)[C@H](c3ccoc3)OC(=O)C3OC321` (stereo partly specified), the Kd is > 4 mM (inactive).
